Test system: HLA-DRA mRNA in RFX-negative cell lines
Conditions: two RFX-negative suspension B-cell lines, 5 uM Azacytidine for 72 hours, RT-PCR 40 cycles, agarose gel detection
Procedure: Suspension B-cell lines were seeded at 10^5 cells per ml in 20 ml volume of media. […] Total RNA was prepared as described, and 5 ug of RNA were used in a standard reverse transcriptase, polymerase chain reaction (RT-PCR) for HLA-DRA mRNA and for γ-actin mRNA. PCR was performed for 40 cycles and the PCR products detected by 2.2% agarose gel electrophoresis.

Nc1ncn([C@@H]2O[C@H](CO)[C@@H](O)[C@H]2O)c(=O)n1 [AzaC, Azacytidine]
HLA-DRA mRNA production compared to untreated cells: increase in HLA-DRA mRNA production
